Experiments:
Experiment in all cases: relative viability (nuclei count vs DMSO), 5 days (fraction); higher = more cells survive
[1] = compound: CC1=C(C(=NN1)C)CC2=C(C3=C(S2)N(C(=O)N(C3=O)C)CC(C)C)C(=O)N4C[C@@H](CO4)O + CC(=O)c1c(C)c2cnc(Nc3ccc(N4CCNCC4)cn3)nc2n(C2CCCC2)c1=O [Palbociclib] (partner 0.5 µM)
How it was run: (§1)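 Relative viability equals treated-well nuclei counts divided by vehicle-well nuclei counts. Counts came from 4× images of lung cancer cell lines grown in 1536-well plates for 5 days after pin-tool dosing on the day after seeding. Dosing used one drug alone or a fixed anchor-drug dose plus five library-drug doses (not always all listed) in √10 steps, and values are medians of duplicate plates.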

[2] = compound: Cc1ccccc1C(C(=O)NC1CCCCC1)N(C(=O)Cn1ccnc1C)c1cccc(F)c1 [IDH-C35] + COc1cc2c(Oc3ccc(NC(=O)C4(C(=O)Nc5ccc(F)cc5)CC4)cc3F)ccnc2cc1OCCCN1CCOCC1 [Foretinib] (partner 0.25 µM)
How it was run: as §1

[3] = compound: Cc1ccccc1C(C(=O)NC1CCCCC1)N(C(=O)Cn1ccnc1C)c1cccc(F)c1 [IDH-C35] + Cc1nc(Nc2ncc(C(=O)Nc3c(C)cccc3Cl)s2)cc(N2CCN(CCO)CC2)n1 [Dasatinib] (partner 0.075 µM)
How it was run: as §1

[4] = compound: Cc1ccccc1C(C(=O)NC1CCCCC1)N(C(=O)Cn1ccnc1C)c1cccc(F)c1 [IDH-C35] + Nc1nc2[nH]cc(CCc3ccc(C(=O)N[C@@H](CCC(=O)O)C(=O)O)cc3)c2c(=O)[nH]1 [Pemetrexed] (partner 0.2 µM)
How it was run: as §1

## UMC-11
[1]; first compound 0.0025 µM
  relative viability: 0.333
[1]; first compound 0.007906 µM
  relative viability: 0.31
[1]; first compound 0.025 µM
  relative viability: 0.296
[1]; first compound 0.07906 µM
  relative viability: 0.29
[1]; first compound 0.25 µM
  relative viability: 0.339
[2]; first compound 0.08 µM
  relative viability: 0.889
[2]; first compound 0.253 µM
  relative viability: 1.07
[2]; first compound 0.8 µM
  relative viability: 0.997
[2]; first compound 2.53 µM
  relative viability: 1.06
[2]; first compound 8 µM
  relative viability: 1.11
[3]; first compound 0.08 µM
  relative viability: 0.416
[3]; first compound 0.253 µM
  relative viability: 0.472
[3]; first compound 0.8 µM
  relative viability: 0.474
[3]; first compound 2.53 µM
  relative viability: 0.532
[3]; first compound 8 µM
  relative viability: 0.443
[4]; first compound 0.08 µM
  relative viability: 0.811
[4]; first compound 0.253 µM
  relative viability: 0.915
[4]; first compound 0.8 µM
  relative viability: 0.804
[4]; first compound 2.53 µM
  relative viability: 0.853
[4]; first compound 8 µM
  relative viability: 0.88

Reference: the supplement of paper PMC10307832
